From patent US20240352010A1, “SUBSTITUTED 1,2,4-THIADIAZOLYL NICOTINAMIDES, SALTS OR N-OXIDES THEREOF AND THEIR USE AS HERBICIDALLY ACTIVE SUBSTANCES” (BayerAktiengesellschaft, priority 2021, published 2024)

Test system: Digitaria sanguinalis (DIGSA)
Experiment: Herbicidal post-emergence action, DIGSA
Type: in vivo
Details: 1280 g/ha, assessed visually after ca. 3 weeks vs untreated controls (Table B12)
Source text: Seeds of mono- and dicotyledonous weed plants were sown in plastic pots (double sowings with one species of mono- and one species of dicotyledonous weed plants per pot), in sandy loam, covered with soil and grown under controlled growth conditions. 2 to 3 weeks after sowing, the test plants were sprayed in the single-leaf stage. The compounds according to the invention, formulated in the form of wettable powders (WP) or as emulsifiable concentrates (EC), were sprayed onto the green plant parts as an aqueous suspension or as an emulsion, with the addition of 0.5% of an additive, at an application rate of 600 litres of water per hectare (converted). The test plants were placed in the greenhouse for ca. 3 weeks under optimum growth conditions, and then the effect of the preparations is assessed visually in comparison with untreated controls (herbicidal effect in percent (%): 100% effect=plants have died, 0% effect=as control plants).

O=C(Nc1ncns1)c1c(C2CC2)ccnc1F [Example I-005]
herbicidal effect in percent, DIGSA: 100%
